Source: patent US9226950B2, “Method and composition for treating diabetes mellitus” (National Dong Hwa University, priority 2013, dated 2016)

Tested on: GLUT4
Assay: GLUT4 translocation assay in differentiated C2C12 myotubes
Assay type: cell-based, mouse
Details: FIG. 3
Method: Mouse muscle myoblast cells (C2C12) were obtained from the Food Industry Research and Development Institute (FIRDI, Hsinchu, Taiwan). The cells were grown and maintained in Dulbecco's Modified Eagle's Medium high glucose (DMEM-high glucose; GIBCO, CA, USA) containing 10% fetal bovine serum (FBS, GIBCO) and 1% penicillin streptomycin (GIBCO) in a cell culture incubator with 5% CO2 at 37° C. Prior to the following experiments, the cells were seeded and cultured at a density of 8×10^3 cells per well in 96-well plates or 2.5×10^5 cells per well in 6-well plates. […]
The C2C12 cells were fully differentiated with DMEM supplemented with 1% FBS and 1% horse serum for 4 days. […] The translocation changes of GLUT4 of the cells were detected. […] The HRP activity was determined by measuring the absorbance at 450 nm with a spectrophotometer (EnSpire 2300 Multilabel Reader, Perkin Elmer, Waltham, Mass., USA).
To detect the effect of tetracosanol on Glut4 translocation in S961-induced insulin resistance, the differentiated C2C12 cells were treated with or without 20 nM S961 (S961) followed by 185 μM of insulin (Ins), and treated with or without 100 μM of Tetracosanol (Tet) (n=4 in each group). […] At the cellular level, the ability of glucose uptake was determined by controlling the amount of the GLUT4 glucose transporter present in the plasma membrane. […]

Question: How did the “insulin-dependent GLUT4 translocation” value (insulin resistance C2C12 differentiated myotubes induced by 20 nM S961, insulin plus tetracosanol (100 μM)) turn out when `CCCCCCCCCCCCCCCCCCCCCCCCO` [tetracosanol] was run?
Answer: provided the recovery ability

Question: What about the “insulin-dependent GLUT4 translocation” value (normal C2C12 differentiated myotubes (Ins), 100 μM tetracosanol, 185 μM insulin) of the same compound?
Answer: no effects
